In US8110703B2, “Retinoid derivative and pharmaceutical composition and use thereof” (Anhui Medical University, priority 2008, dated 2012):

Assays:
Type in all cases: cell-based
[1] = tested on: A549 lung cancer cells; experiment: MTT cell growth and proliferation experiment, A549; set-up: key to Inhibition Rate: (control OD570 − test OD570)/control OD570, as fraction; conditions: 3 d; for OD Value (x ± s): A549, MTT OD 570 nm; for Inhibition Rate: A549, MTT, given as fraction
Method: (§1) 1.1 Reagents 12 retinoic acid derivatives with the final concentrations of 1 ug/ml, 5 ug/ml and 10 ug/ml are synthesized by the Pharmaceutical College of Anhui Medical University using DMSO and anhydrous ethanol, separately packaged for storage at −20° C. and kept out of the light when used, and the final concentration of DMSO is less than 0.1%. MTT is purchased from Sigma Corp. The Coulter DNA detection kit is presented by the Central Lab of Anhui Provincial Hospital. AFP and γ-GT are provided by the Clinical Lab of No. 105 Hospital of PLA. Apoptosis-Hoechst staining kit is purchased from Beyotime Company.
(§2) 1.2 Cell Culture A549, and HpeG2 cells are stored by our lab. Cell growth condition: DMEM (from GIBICO Company) culture solution is added with 10% of calf serum (purchased from the Hangzhou Sijiqing Biological Engineering Material Co., Ltd.) to culture in a cell culture incubator (37° C., 5% CO2) with saturated humidity.
(§3) 1.3 Cell Growth and Proliferation Experiments MTT process is used. Cells in the logarithmic phase are picked and seeded on a 96-hole culture board with a cell concentration of 5×10^7/L. Each hole of the board is 200 ul. The next day after the adherence, the original solution is discarded, and the culture solution is added. The cells are divided into 1 ug/ml retinoic acid derivative groups, 5 ug/ml retinoic acid derivative groups, 10 ug/ml retinoic acid derivative groups, blank control groups, cell control groups, solvent control groups (1‰ DMSO and anhydrous ethanol) (17 in total) according to the concentrations thereof, incubated for 3d, added with MTT (5 g/L) of 20 ul/hole for incubation at 37° C. for 4 h. The original solution is carefully discarded and dried, and DMSO of 20 ul/hole is added to dissolve crystals, followed by vibrating for 10 min and determining the OD value at 570 nm. Each concentration is corresponding to 5 holes, and each group calculates the average of 3 experiments to calculate the inhibition rate to the cell growth according to the optical density (OD) average of each hole in each group and the following equation: inhibition rate %=(control hole OD570−experimental hole OD570)/control hole OD5700*100%. The process above is repeated for three times. The second experiment takes the maximum concentration (10 […]) for culture respectively for 1, 2, 3 and 7 days and repeat for three times.

[2] = tested on: K562 cells; experiment: Cell cycle analysis by flow cytometer, K562; set-up: S %: dose or concentration left out as unconfirmed; conditions: 72 h
Method: (§4) Retinoic acid derivatives and fenretinide are prepared as a storage solution of 10 mg/mL by anhydrous ethanol and stored at […] and kept out of light.
(§5) NB4 cells and K562 cells are inoculated with an initial concentration of 2*10^5/ml in the RPMI1640 culture solution having 10% of calf serum (FBS), 100 u/ml of penicillin, 100 Lg/ml of streptomycin and 2 mmol/L of glutamine for suspension culture (37° C., 5% CO2). Change the solution every 2-3 days.
(§6) For the cells above acted by the retinoic acid derivatives and fenretinide ([…]) for 72 h, about 10^6 of them are collected, washed by PBS twice, fixed by 70% of cold ethanol over 24 h, washed by PBS twice, added with 5 ug/ml of propidium iodide for staining and detected by a flow cytometer from which the data are analyzed and processed by the multi-cycle software.

[3] = tested on: liver cancer HepG2 cells; experiment: MTT cell growth and proliferation experiment, HepG2; set-up: key to Inhibition Rate: (control OD570 − test OD570)/control OD570, as fraction; conditions: 3 d; for OD Value (x ± s): HepG2, MTT OD 570 nm; for Inhibition Rate: HepG2, MTT, fraction
Method: as §1, §2, §3

[4] = tested on: NB4 cells; experiment: Cell cycle analysis by flow cytometer, NB4; set-up: S %: dose or concentration left out as unconfirmed; conditions: 72 h
Method: as §4, §5, §6

Compound	OD Value (x ± s) ([1]; 1 ug/ml, solvent DMSO (D))	OD Value (x ± s) ([1]; 5 ug/ml, solvent DMSO (D))	OD Value (x ± s) ([1]; 10 ug/ml, solvent DMSO (D))	Inhibition Rate ([1]; 1 ug/ml, solvent DMSO (D))	Inhibition Rate ([1]; 5 ug/ml, solvent DMSO (D))	Inhibition Rate ([1]; 10 ug/ml, solvent DMSO (D))	G1 % [2]	G2 % [2]	S % [2]	OD Value (x ± s) ([3]; 1 ug/ml, solvent ethanol)	OD Value (x ± s) ([3]; 5 ug/ml, solvent ethanol)	OD Value (x ± s) ([3]; 10 ug/ml, solvent ethanol)	Inhibition Rate ([3]; 1 ug/ml, solvent ethanol)	Inhibition Rate ([3]; 5 ug/ml, solvent ethanol)	Inhibition Rate ([3]; 10 ug/ml, solvent ethanol)	G1 % [4]	G2 % [4]	S % [4]	further results
CC1=C(/C=C/C(C)=C/C=C/C(C)=C/C(=O)Oc2cccc(C(F)(F)F)c2)C(C)(C)CCC1 [Example 2a-02, (3-trifluoromethylphenyl)-(all-trans)-3,7-dimethyl-9-(2,6,6-trimethyl-1-cyclohexen-1-yl)-2,4,6,8-nonatetraenoate]	1.735 ± 0.048	1.621 ± 0.070	1.580 ± 0.207	0.070	0.131	0.144	35.4%	9.9%	54.6%	1.19 ± 0.52	1.13 ± 0.46	0.94 ± 0.49	0.29	0.33	0.45				
CC1=C(/C=C/C(C)=C/C=C/C(C)=C/C(=O)Oc2ccc(N)c(C(F)(F)F)c2)C(C)(C)CCC1 [Example 4a-01, (4-amino-3-trifluoromethylphenyl)-(all-trans)-3,7-dimethyl-9-(2,6,6-trimethyl-1-cyclohexen-1-yl)-2,4,6,8-nonatetraenoate]							39.1%	6.9%	53.9%							59.15%	7.07%	33.78%	OD Value (x ± s) ([3]; 1 ug/ml, solvent not given): 1.72 ± 0.44; OD Value (x ± s) ([3]; 5 ug/ml, solvent not given): 1.63 ± 0.36; OD Value (x ± s) ([3]; 10 ug/ml, solvent not given): 1.57 ± 0.30; Inhibition Rate ([3]; 1 ug/ml, solvent not given): −0.009; Inhibition Rate ([3]; 5 ug/ml, solvent not given): 0.04; Inhibition Rate ([3]; 10 ug/ml, solvent not given): 0.07
CC1=C(/C=C/C(C)=C/C=C/C(C)=C/C(=O)Oc2cccc(OC(F)(F)F)c2)C(C)(C)CCC1 [Example 5a-02, (3-trifluoromethoxyphenyl)-(all-trans)-3,7-dimethyl-9-(2,6,6-trimethyl-1-cyclohexen-1-yl)-2,4,6,8-nonatetraenoate]	1.843 ± 0.179	1.817 ± 0.142	1.689 ± 0.154	0.012	0.027	0.095	38.2%	7.7%	54.2%	1.27 ± 0.44	1.13 ± 0.47	1.11 ± 0.61	0.25	0.33	0.35	60.06%	4.91%	35.03%	
CC1=C(/C=C/C(C)=C/C=C/C(C)=C/C(=O)Oc2ccc(C(F)(F)F)cc2)C(C)(C)CCC1 [Example 2a-01, (4-trifluoromethylphenyl)-(all-trans)-3,7-dimethyl-9-(2,6,6-trimethyl-1-cyclohexen-1-yl)-2,4,6,8-nonatetraenoate]							36.1%	12.5%	51.4%	1.38 ± 0.56	1.31 ± 0.57	1.30 ± 0.55	0.18	0.23	0.24				OD Value (x ± s) ([1]; 1 ug/ml, solvent ethanol): 1.878 ± 0.158; OD Value (x ± s) ([1]; 5 ug/ml, solvent ethanol): 1.487 ± 0.175; OD Value (x ± s) ([1]; 10 ug/ml, solvent ethanol): 1.458 ± 0.066; Inhibition Rate ([1]; 1 ug/ml, solvent ethanol): −0.006; Inhibition Rate ([1]; 5 ug/ml, solvent ethanol): 0.203; Inhibition Rate ([1]; 10 ug/ml, solvent ethanol): 0.219
